The structures appear in SMILES notation.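 Growth conditions: 96-well plates. Treatment: test compound, 48 hours, 5 concentrations. Analysis: linear interpolation between bracketing concentrations; unreached endpoints set to highest concentration. Here, GI50 denotes the concentration required for 50% inhibition of growth. At the TGI there is no net growth.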 Where only a bound is given, the exact number is not on record here.

This note sets out measurements from PubChem BioAssay (NCI).

Common to all, as to test: inhibition of tumour cell growth, NCI panel, 48 h
The test system of test [1] is EKVX NSCLC.
Test [2] concerns HCT-116 colon.
Test [3] deals with HL-60(TB) leukemia.
The subject of test [4] is HOP-92 NSCLC.
For test [5], the system named is HT29 colon.
For test [6], the system named is IGROV1 ovarian.
Test [7] deals with OVCAR-3 ovarian.
For test [8], the system named is RPMI-8226 leukemia.
Test [9] deals with UO-31 renal.
Test [10] deals with MDA-MB-435.

As to `Nc1ccccc1C(=O)C(Br)C(Br)c1ccc2c(c1)OCO2` (stereo not given), the TGI is 52 µM in [1]; 31.1 µM in test [2]; more than 100 µM in test [3]; 39.5 µM in test [4]; 34.4 µM in test [5]; more than 100 µM in test [6]. For the same compound, the TGI in [7] was 36.1 µM; in test [8], more than 100 µM; in test [9], 45.1 µM.

With `C/C(=N\Nc1nc2ccccc2s1)c1ccc2ccccc2n1`, the TGI in test [1] was more than 100 µM; in [2] it was more than 100 µM; in test [3], 52.9 µM; in test [5], more than 100 µM; in test [6] it was 47.1 µM; in test [10] it was more than 100 µM. Moreover, the TGI was more than 100 µM in test [7], 45.3 µM in test [8] and more than 100 µM in [9].

As for `c1ccc(C2CC(=NC3CCCCC3)Nc3ccccc3N2)cc1` (stereo not given), the TGI in test [1], in test [2], in test [3], in test [5], in test [6] and in test [10] was more than 100 µM each time. The TGI in test [7], in [8] and in test [9] was more than 100 µM each time.

With `C[C@]12CC[C@@H]3c4ccc(O)cc4CC[C@H]3[C@@H]1C/C(=C\c1ccc(C#N)cc1)C2=O`, the TGI in test [1] is more than 100 µM; in test [2], more than 100 µM; in test [4], 89.1 µM; in test [5], 75.2 µM; in test [6], more than 100 µM; in test [10], 76.8 µM. Besides, the TGI in [7], in test [8] and in test [9] was more than 100 µM throughout.

For `O=C1CS(=O)(=O)C(c2cccc(Oc3ccccc3)c2)N1c1cc(Cl)ccc1Cl` (stereo not given), the TGI in test [1] was more than 100 µM; in test [2] it was 41.9 µM; in test [3], 81.8 µM; in [4], 38.8 µM; in test [5], 47.8 µM; in [10] it was 25.9 µM. For the same compound, the TGI in test [7] came to 35.1 µM; in [9] it was 43.7 µM.

As to `c1ccc2c(c1)CCCC/C2=N/OCC1CO1` (stereo not given), the TGI in test [1] is more than 100 µM; in test [2], more than 100 µM; in test [3], 44.1 µM; in test [4], 69.2 µM; in test [5], more than 100 µM; in test [6] it was more than 100 µM. The compound further had a TGI in test [8] of 72.9 µM.

As to `COc1cc(C2c3cc4c(cc3[C@@H](Nc3ccc5c(c3)OCO5)C3COC(=O)[C@H]23)OCO4)cc(OC)c1O` (stereo not given in full), the TGI in test [1] stood at 16.3 µM; in test [2], 15.7 µM; in test [3], 0.977 µM; in [4], 8.37 µM; in test [5], 6.07 µM; in [6], 35 µM. In addition, the TGI was 22.2 µM in [7], 8.59 µM in test [8] and 9.7 µM in test [9].

As to `COC(=O)[C@H](Cc1ccccc1)NC(=O)N(CCC#N)CCN(C(=O)N[C@@H](Cc1ccccc1)C(=O)OC)c1ccccc1`, the TGI in [1] is 73.2 µM; in test [2], 82.5 µM; in [4], 39.4 µM; in [6], 42.9 µM; in test [10], 39.2 µM; in test [7], 43.4 µM. In addition, the TGI in test [8] was determined as 43.9 µM; in test [9] it was 31.9 µM.

As for `COc1ccc(N2C(=O)C3c4[nH]c5ccccc5c4C4CCCCCCCCCC4C3C2=O)cc1` (stereo not given), the TGI in [1], in test [2], in [3], in [5], in [6] and in test [10] was more than 10 µM throughout. The TGI in [7], in test [8] and in [9] was more than 10 µM throughout.

For the compound `CC(=O)Oc1c(C)c(C)c2c(c1C)CCC(C)(CC(=O)OCCCCCCCCCCC[P+](c1ccccc1)(c1ccccc1)c1ccccc1)O2` (stereo not given), the GI50 in test [3] was 0.228 µM; in test [5], 0.707 µM; in test [10] it was 0.31 µM; in test [8] it was 0.237 µM. Moreover, the TGI in test [3] was 0.926 µM; in [5], 2.29 µM; in test [10], 1.2 µM; in test [8], 1.15 µM.

On to `O=C1C=CC(=O)C(CNc2ccc(C(=O)OCc3ccccc3)cc2)=C1`, for which the TGI in test [1] was 23.7 µM; in [2], 18.2 µM; in test [4] it was 3.8 µM; in test [5], 31.8 µM; in test [6], 12.6 µM; in test [10], 18.7 µM. Moreover, the TGI in [7] is 7.23 µM; in test [8], more than 21 µM; in [9], 7.49 µM.

With `S=C1NC2=C(CSC/C2=C\c2ccccc2)C(c2ccccc2)N1` (stereo not given), the TGI in test [1] was more than 100 µM; in test [2], more than 100 µM; in test [3] it was 44.5 µM; in [4], 97.4 µM; in test [5] it was more than 100 µM; in test [6], more than 100 µM. Also, the TGI in [7], in test [8] and in test [9] was more than 100 µM each time.

For the compound `COC(=O)N1N=C(c2ccccc2)C1c1ccccc1` (stereo not given), the TGI in [1], in test [2], in [3], in test [5], in [10] and in test [7] was more than 100 µM in each case. For the same compound, the TGI was more than 100 µM in [8] and 52.9 µM in test [9].

Consider `C[C@H]1OC(=O)[C@@H]2N=NN(Cc3ccccc3)[C@H]12`, for which the TGI in test [2], in test [4], in test [5], in test [10], in test [7] and in test [8] was more than 100 µM throughout. This compound displayed a TGI in test [9] of more than 100 µM.

With `COc1cc([N+](=O)[O-])c(OC)c2c(Nc3ccc(S(=O)(=O)O)c4cc(S(=O)(=O)O)cc(S(=O)(=O)O)c34)cc(C)nc12`, the TGI in test [1], in test [2], in test [3], in test [5], in test [6] and in test [10] was more than 100 µM each time. The TGI in test [7] and in test [9] was more than 100 µM in each case.

As to `CSc1nc2c(ncn2C2OC(CO)C(O)C(O)C2O)c(=O)[nH]1` (stereo not given), the TGI in test [1], in test [2], in [3], in test [4], in [5] and in test [6] was more than 100 µM in each case. Also, the TGI in test [7], in [8] and in [9] was more than 100 µM throughout.

In the case of `C=C1C(=O)C23C(O)CC4C5(C)CCCC4(C(O)OC5)C2C(OC(C)=O)CC1C3O` (stereo not given), the TGI stood at 27.7 µM in test [1]; 18.5 µM in [2]; 14.6 µM in test [4]; 17.6 µM in test [5]; 39.2 µM in [6]; 28.2 µM in test [7]. Also, the figures for the TGI in test [8] and in test [9] were 17.7 µM and more than 100 µM, respectively.

In the case of `CC#CC(O)(C(=O)OC1CC(C)N(C)C(C)(C)C1)C1CCCC1` (stereo not given), the TGI in test [1], in [2], in test [3], in test [5], in test [6] and in test [10] was more than 100 µM each time. In addition, the TGI in test [7], in test [8] and in test [9] was more than 100 µM in each case.

For the compound `CCOC(=O)C1=CC(C)(C(=O)OCC)Nc2c(nc(N)[nH]c2=O)N1` (stereo not given), the TGI in test [1], in test [2], in [4], in test [5], in [6] and in test [10] was more than 10 µM each time. Moreover, the TGI in [7], in [8] and in [9] was more than 10 µM throughout.

Regarding `O=C1c2cccc(O)c2C(=O)c2c(OC3OC(CO)C(O)C(O)C3O)cccc21` (stereo not given), the TGI in test [1] was more than 100 µM; in test [2], 51 µM; in [4], more than 100 µM; in test [5], more than 100 µM; in [6], more than 100 µM; in test [10], 39.7 µM. The TGI in [7], in test [8] and in test [9] was more than 100 µM in each case.

As for `C=CC(=O)N1C/C(=C\c2ccc(Cl)cc2)C(=O)/C(=C/c2ccc(Cl)cc2)C1`, the TGI in test [1] was determined as 4.72 µM; in test [2] it was 0.257 µM; in [4] it was 4.25 µM; in test [5], 0.326 µM; in [6], 0.678 µM; in [10], 0.785 µM. Moreover, the TGI was found to be 1.03 µM in test [7] and 1.17 µM in test [9].

On to `CC1(C)OC2COC3([C@@H]4OC(C)(C)O[C@@H]4CO)OC(C)(C)OC3C2O1` (stereo not given in full), for which the TGI in [1], in test [2], in test [4], in test [6], in [10] and in [7] was more than 100 µM in each case. The TGI in [8] and in [9] was more than 100 µM throughout.

In the case of `COc1ccc(/C=N/n2c(C)nc3c(sc(=S)n3-c3ccccc3)c2=O)cc1`, the TGI in test [2] is more than 100 µM; in [3] it was 61.2 µM; in [4], more than 100 µM; in test [5], more than 100 µM; in test [6], more than 100 µM; in test [7], more than 100 µM. Moreover, the TGI in test [8] and in test [9] was more than 100 µM each time.

With `COc1cc2[nH]c(-c3ccccc3)cc(=O)c2c(OC)c1OC`, the TGI in [1], in test [2], in test [3], in test [5], in [6] and in [10] was more than 100 µM throughout. In addition, the TGI in test [7], in test [8] and in test [9] was more than 100 µM throughout.

In the case of `CCOP(=O)(OCC)OC1CC(n2cc(C)c(=O)n(C)c2=O)OC1CO[Si](C)(C)C(C)(C)C` (stereo not given), the TGI is 68.4 µM in [1]; more than 100 µM in [2]; 57.4 µM in test [3]; more than 100 µM in test [5]; more than 100 µM in [6]; more than 100 µM in test [10]. Moreover, the TGI was more than 100 µM in [7], more than 100 µM in test [8] and 7.15 µM in [9].

For `COc1cc(/C=C2\CCC(C)/C(=C\c3cc(OC)c(OC)c(OC)c3)C2=O)cc(OC)c1OC` (stereo not given), the TGI in test [1] was 16.3 µM; in [2], more than 100 µM; in [4], more than 100 µM; in test [5], 10.9 µM; in test [6], 6.58 µM; in test [10] it was more than 100 µM. Besides, the TGI was 0.901 µM in test [8] and more than 100 µM in [9].

For `COC1C(O)C(O[C@H]2CC[C@@]3(C)C(CC[C@@H]4[C@@H]3CC[C@]3(C)[C@@H](C(C)OC5OC(CO)C(O)C(O)C5O)CC[C@]43O)C2)OC(C)C1OC1OC(CO)C(O)C(O)C1O` (stereo not given in full), the TGI in test [1], in test [2], in [4], in test [5], in test [6] and in test [10] was more than 100 µM each time. Moreover, the TGI in [7], in [8] and in test [9] was more than 100 µM throughout.

For `CC(C)[Si](OC/C(=C/COC(C)(C)C)[C@H]1CC=C(C(=O)c2ccccc2N2CN(C)C(=O)N(C)C2)C1)(C(C)C)C(C)C`, the TGI is 30.3 µM in test [1]; 4.97 µM in test [2]; 25.1 µM in test [4]; 18.7 µM in test [5]; 25.6 µM in [6]; 30.3 µM in test [10]. The TGI was determined as 25 µM in [7], 15.6 µM in [8] and 23.1 µM in test [9].

For `O=[N+]([O-])c1ccc2c(c1)c(N=NC(=S)Nc1ccc(Cl)cc1)c(O)n2CN1CCOCC1`, the TGI in [2] was 15.7 µM; in test [3], 11.5 µM; in [4], 21.2 µM; in test [6], 18.1 µM; in [10] it was 19.2 µM; in [7] it was 17.6 µM. In test [9], the TGI came out at 15.7 µM.
